Consider 60 compounds from PubChem BioAssay AID687005 (Broad Institute, 2013).

Results filed as inconclusive are left out. The source made the active and inactive calls.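 The calls were made as follows: active = Compounds that reduce signal, with fitted half-maximal dose at or under twice the top valid tested dose; inconclusive = Poor fit, or flat curve losing 30 to 70% of signal; inactive = Potency past limit, flat within 30%, or opposite direction.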

The first experiment is described as follows: viability loss in HEK293T cells – cell-based, ATP luminescence, cherry-pick samples, cytotoxicity control, dose response (AID 687005). The settings on record: HEK293T viability, ATP luminescence (CellTiter-Glo), 48 h; at 23.5 µM (top of the series). A general note: Cellular ATP, detected with luciferase, serves as a proxy for viable cell number.
For `Cc1cc(C(=O)Nc2ccc3c(c2)C(=O)N(C)[C@H]2CC[C@@H](CC(=O)N[C@@H](C)c4ccccc4)O[C@H]2CO3)no1`, the activity change, negative = cytotoxicity was -36.7% (inactive).

On to `CO[C@@H]1CN(C)C(=O)c2cc(NC(=O)C3CCOCC3)ccc2OC[C@H](C)NC[C@@H]1C`, for which the activity change, negative = cytotoxicity was -2.94% (inactive). Same read-out and setting: then `Cc1noc(C)c1NC(=O)N(C)C[C@H]1Oc2ccc(NS(=O)(=O)c3cn(C)cn3)cc2CC(=O)N([C@H](C)CO)C[C@H]1C`, with -32.1% (inactive); and `C[C@@H]1CCCCO[C@@H](CN(C)Cc2ccncc2)[C@@H](C)CN([C@@H](C)CO)C(=O)c2cc(NC(=O)c3ccncc3)ccc2O1`, with 46.4% (inactive). As to `Cc1noc(C)c1NC(=O)N(C)C[C@@H]1Oc2ccc(NC(=O)NC(C)C)cc2CC(=O)N([C@@H](C)CO)C[C@@H]1C`, the activity change, negative = cytotoxicity is -4.18% (inactive). On to `CNC(=O)C[C@@H]1CC[C@@H]2[C@H](COc3ccc(NC(=O)c4cc(C)on4)cc3C(=O)N2C)O1`, for which the activity change, negative = cytotoxicity is 26.8% (inactive).

The same experiment, now with this note: HEK293T viability, ATP luminescence (CellTiter-Glo), 48 h; at 26 µM (top of the series).
For the compound `CCc1ccc(NC(=O)[C@H](C)NC(=O)C2CCN(C(=O)[C@@H](N)C(C)C)CC2)cc1`, the activity change, negative = cytotoxicity is -17.1% (inactive).

Regarding `COCC#Cc1cnc2c(c1)C(=O)N([C@@H](C)CO)C[C@H](C)[C@H](CN(C)C(=O)Nc1ccc(OC)cc1)O2`, the activity change, negative = cytotoxicity is 21.8% (inactive). Consider `Cc1ccc(S(=O)(=O)N[C@@H]2CC[C@H](CCNC(=O)C3CCCC3)O[C@@H]2CO)cc1`, for which the activity change, negative = cytotoxicity was -17.8% (inactive).

For `COc1cc(NC(=O)CN2CCN(S(=O)(=O)c3ccc(C(C)C)cc3)CC2)cc(OC)c1`, the activity change, negative = cytotoxicity is 2.05% (inactive).

For the compound `S=C(Nc1ccccc1)Nc1cc(Cl)ccc1Oc1ccccc1`, the activity change, negative = cytotoxicity was -0.976% (inactive). For `C[C@@H]1CN([C@H](C)CO)C(=O)c2cc(-c3ccc(C#N)cc3)cnc2O[C@@H]1CN(C)C(=O)Nc1ccc(F)cc1`, the activity change, negative = cytotoxicity was -0.869% (inactive). Same read-out and setting: then `C/C=C/c1ccc2c(c1)O[C@H](CN(C)S(=O)(=O)c1ccccc1)[C@H](C)CN([C@@H](C)CO)S2(=O)=O`, with -8.59% (inactive); and `O=C(C[C@@H]1C[C@@H]2c3cc(NC(=O)C4CCC4)ccc3O[C@@H]2[C@H](CO)O1)NCc1cccc(F)c1`, with 3.17% (inactive); and `CC(=O)NC[C@H]1[C@@H](c2ccc(C3=CCCC3)cc2)[C@@H](CO)N1C(=O)NC(C)C`, with -31.1% (inactive). The same measure, in the same setting: next, `CC(C)NC(=O)Nc1ccc2c(c1)C(=O)N([C@H](C)CO)C[C@H](C)[C@H](CN(C)Cc1ccncc1)OCCCC[C@H](C)O2`: -57.3% (inactive); `CN1C(=O)N[C@@H]2c3ccccc3O[C@@]1(C)[C@@H]2COC(=O)c1ccccc1`: -8.64% (inactive).

Consider `COc1cccc(S(=O)(=O)N(C)C[C@H]2OCc3cnnn3CCCC(=O)N([C@H](C)CO)C[C@H]2C)c1`, for which the activity change, negative = cytotoxicity was 38.2% (inactive). As to `C[C@@H](O)C#Cc1ccc([C@@H]2[C@H](CO)N3CCCCN(CC4CC4)C[C@@H]23)cc1`, the activity change, negative = cytotoxicity is -28.3% (inactive). With `O=C(NC(=S)Nc1ccccc1N1CCOCC1)c1ccc(Br)cc1`, the activity change, negative = cytotoxicity was -8.37% (inactive).

Consider `C[C@@H]1CN([C@H](C)CO)C(=O)c2cc(N(C)C)ccc2O[C@@H]1CN(C)C(=O)Nc1ccc(C(F)(F)F)cc1`, for which the activity change, negative = cytotoxicity is -77.2% (inactive). As to `C[C@H]1CN([C@@H](C)CO)C(=O)Cc2cc(NS(=O)(=O)c3cn(C)cn3)ccc2O[C@@H]1CN(C)Cc1ccc(Oc2ccccc2)cc1`, the activity change, negative = cytotoxicity is 28.9% (inactive). Turning to `O=C(Cc1ccccc1)N[C@H]1C=C[C@@H](CC(=O)N2CCOCC2)O[C@H]1CO`, the activity change, negative = cytotoxicity is 8.54% (inactive). Consider `C[C@@H]1CN([C@H](C)CO)C(=O)c2cc(C3=CCCCC3)cnc2O[C@H]1CN(C)C(=O)Cc1cccnc1`, for which the activity change, negative = cytotoxicity is -11.9% (inactive). In the case of `Cc1ccccc1-n1ncc2c(SCC(=O)NCc3cccs3)ncnc21`, the activity change, negative = cytotoxicity is -48.1% (inactive).

Regarding `CO[C@H]1CN(C)C(=O)c2cc(NC(=O)c3ccccc3F)ccc2OC[C@H](C)N(CC2CCOCC2)C[C@H]1C`, the activity change, negative = cytotoxicity was 57% (inactive). In the case of `CC(C)NC(=O)Nc1cccc2c1O[C@H](CN(C)C)[C@H](C)CN([C@@H](C)CO)C2=O`, the activity change, negative = cytotoxicity is 22% (inactive). The same measure, in the same setting: then `O=C(C1CCOCC1)N1C[C@H]2[C@@H](c3ccccc31)[C@@H](CO)N2Cc1ccccc1Cl`, with 3.34% (inactive). Still for that read-out and setting: then `COCC(=O)NC[C@H]1N[C@H](CO)[C@@H]1c1ccc(C2=CCCC2)cc1`, with 16.1% (inactive); and `COc1cccc(S(=O)(=O)Nc2ccc3c(c2)[C@H]2C[C@H](CC(=O)NCc4ccccc4F)O[C@@H](CO)[C@H]2O3)c1`, with 2.6% (inactive).

Regarding `C[C@@H](NC(=O)C[C@H]1CC[C@@H](NC(=O)Cc2ccccn2)[C@@H](CO)O1)c1ccccc1`, the activity change, negative = cytotoxicity was -16.9% (inactive).

With `Cc1noc(C)c1S(=O)(=O)N(C)C[C@@H]1Oc2c(NC(=O)c3cnccn3)cccc2C(=O)N([C@@H](C)CO)C[C@@H]1C`, the activity change, negative = cytotoxicity was 6.5% (inactive). Take `COCC#Cc1cnc2c(c1)C(=O)N([C@H](C)CO)C[C@@H](C)[C@@H](CN(C)C(=O)Nc1ccc(OC)cc1)O2`: the activity change, negative = cytotoxicity was -11.3% (inactive). In the case of `COc1cccc(NC(=S)N2CCC(Cc3ccccc3)CC2)c1`, the activity change, negative = cytotoxicity is 15.7% (inactive).

With `CN1C(=O)c2cc(NC(=O)Nc3ccc(Cl)cc3)ccc2OC[C@H]2O[C@@H](CC(=O)NCCN3CCCCC3)CC[C@@H]21`, the activity change, negative = cytotoxicity was 36.5% (inactive). `O=C(NCCc1ccccc1)[C@H]1[C@H](CO)[C@H]2Cn3c(cccc3=O)[C@@H]1N2C(=O)C1CCC1`: the activity change, negative = cytotoxicity is 7.71% (inactive).

For the compound `C[C@@H]1CN([C@@H](C)CO)C(=O)c2cc(NS(=O)(=O)c3cn(C)cn3)ccc2O[C@@H](C)CCCCO[C@H]1CN(C)C`, the activity change, negative = cytotoxicity was -1.98% (inactive).

With `O=C(C[C@H]1CC[C@H]2[C@@H](COC[C@@H](O)CN2S(=O)(=O)c2ccc(Oc3ccccc3)cc2)O1)NC1CCC1`, the activity change, negative = cytotoxicity is 16.3% (inactive). For the compound `O=C(CN(c1ccccc1)S(=O)(=O)c1ccc(F)cc1)NC1CCS(=O)(=O)C1` (stereo not given), the activity change, negative = cytotoxicity is -0.328% (inactive). On to `COc1ccccc1CNC(=S)NCc1ccc(Cl)cc1`, for which the activity change, negative = cytotoxicity was 13.5% (inactive).

For `COc1ccc(NC(=O)Nc2ccc3c(c2)C(=O)N([C@H](C)CO)C[C@@H](C)[C@@H](CN(C)C(=O)CCC(F)(F)F)OCCCC[C@H](C)O3)cc1`, the activity change, negative = cytotoxicity is -34.4% (inactive). Consider `CCC(=O)N(C)C[C@@H]1Oc2cc(C#CC(C)(C)O)ccc2S(=O)(=O)N([C@H](C)CO)C[C@H]1C`, for which the activity change, negative = cytotoxicity was -15.7% (inactive). Turning to `CCCNC(=O)Nc1ccc2c(c1)C(=O)N(C)C[C@@H](OC)[C@@H](C)CN(C(=O)CC)[C@H](C)CO2`, the activity change, negative = cytotoxicity was -2.92% (inactive).

For `C[C@@H]1CCCCO[C@H](CN(C)C(=O)CCCN(C)C)[C@@H](C)CN([C@H](C)CO)C(=O)c2cc(NC(=O)Cc3ccccc3)ccc2O1`, the activity change, negative = cytotoxicity was 5.89% (inactive). Still for that read-out and setting: next, `C[C@@H]1CN([C@@H](C)CO)C(=O)c2cccc(N(C)C)c2O[C@H]1CN(C)C(=O)Nc1ccc(C(F)(F)F)cc1`: -5.69% (inactive); `CC(=O)c1cccc(NC(=S)NC2CCCCCCC2)c1`: -21.5% (inactive).

`C[C@@H]1CN([C@H](C)CO)C(=O)c2cc(-c3cccc(F)c3)cnc2O[C@H]1CN(C)Cc1ccccc1`: the activity change, negative = cytotoxicity is -7.8% (inactive). The same measure, in the same setting: then `CCN(Cc1ccccc1)C(=O)COc1ccccc1`, with -2.56% (inactive); and `O=C(Cc1ccccc1)N[C@H]1C=C[C@@H](CC(=O)N2CCOCC2)O[C@@H]1CO`, with -14.2% (inactive). Still for that read-out and setting: next, `CC(C)NC(=O)N(C)C[C@H]1Oc2c(NS(=O)(=O)c3ccc(Cl)cc3)cccc2C(=O)N([C@@H](C)CO)C[C@@H]1C`: -20.3% (inactive). As for `O=C(NCCc1ccccc1)[C@@H]1[C@@H](CO)[C@@H]2Cn3c(cccc3=O)[C@H]1N2C(=O)C1CCC1`, the activity change, negative = cytotoxicity is 8.28% (inactive). As to `N#Cc1ccc(C23CC4(C2)[C@H](CN(Cc2ccc(C(F)(F)F)cc2)[C@@H]4c2ccccc2)C3c2ccc(C(F)(F)F)cc2)cc1` (stereo not given in full), the activity change, negative = cytotoxicity was 10.4% (inactive). For the compound `CCC(=O)N1[C@H](C(=O)Nc2ccccc2)[C@@H](CO)[C@@H]2Cn3c(ccc(-c4ccncc4)c3=O)[C@@H]21`, the activity change, negative = cytotoxicity was 24.7% (inactive).

For the compound `O=C(C[C@@H]1CC[C@H]2[C@@H](COC[C@H](O)CN2Cc2ccccc2F)O1)NC1CCC1`, the activity change, negative = cytotoxicity is -8.5% (inactive). `O=C1CCC(C(=O)Nc2cccc(C(F)(F)F)c2)N1` (stereo not given): the activity change, negative = cytotoxicity is 22% (inactive). Consider `Cc1cc(C)c(NC(=O)C(C)N2CCCCCC2)c(C)c1` (stereo not given), for which the activity change, negative = cytotoxicity was 16.2% (inactive).

Consider `COCC(=O)Nc1ccc2c(c1)OC[C@@H](C)N(C(=O)Cc1cccnc1)C[C@H](C)[C@@H](OC)CN(C)C2=O`, for which the activity change, negative = cytotoxicity was -14.6% (inactive).

Still in this experiment, the particulars now being: HEK293T viability, ATP luminescence (CellTiter-Glo), 48 h; at 30 µM (top of the series).
`COCCN1C(=S)N[C@@H](c2ccccc2)C(C(=O)OC)=C1C`: the activity change, negative = cytotoxicity is 28.9% (inactive). With `COC(=O)C1=C(C)N(CC(C)C)C(=S)NC1c1ccc(Cl)cc1` (stereo not given), the activity change, negative = cytotoxicity was -20.8% (inactive).

The experiment is the same for the next values; noted with them: HEK293T viability, ATP luminescence (CellTiter-Glo), 48 h; at 42 µM (top of the series).
As to `Cc1cccc(C)c1NC(=O)C1NC(=O)CC1c1ccccc1` (stereo not given), the activity change, negative = cytotoxicity is 0.826% (inactive).
